The NIST ThermoML archive (doi:10.1016/j.jct.2018.11.014)
± gives the expanded uncertainty stated by the source.

Assay: molar heat capacity at constant pressure
Conditions: 101.33 kPa, Crystal, Vacuum adiabatic calorimetry

O=C(CO)[C@H](O)[C@H](O)[C@H](O)CO [D-psicose]
Conditions | molar heat capacity at constant pressure [J/K/mol]
10 K | 1.06 ± 0.02
13.99 K | 3.375 ± 0.044
14.02 K | 3.439 ± 0.044
14.28 K | 3.64 ± 0.047
14.4 K | 3.754 ± 0.048
14.66 K | 3.847 ± 0.049
14.86 K | 4.085 ± 0.051
15.13 K | 4.198 ± 0.052
15.37 K | 4.483 ± 0.055
15.64 K | 4.671 ± 0.057
15.88 K | 4.798 ± 0.058
16.15 K | 5.026 ± 0.061
16.39 K | 5.238 ± 0.063
16.66 K | 5.478 ± 0.065
16.87 K | 5.647 ± 0.067
17.18 K | 5.894 ± 0.07
17.36 K | 6.237 ± 0.073
17.71 K | 6.348 ± 0.074
17.89 K | 6.508 ± 0.076
18.23 K | 6.844 ± 0.079
18.41 K | 6.995 ± 0.081
18.75 K | 7.275 ± 0.084
18.93 K | 7.521 ± 0.086
19.28 K | 7.752 ± 0.088
19.46 K | 7.915 ± 0.09
19.8 K | 8.239 ± 0.093
19.98 K | 8.416 ± 0.095
20 K | 8.42 ± 0.1
20.3 K | 8.666 ± 0.098
20.5 K | 8.908 ± 0.1
20.83 K | 9.202 ± 0.1
21.03 K | 9.391 ± 0.1
21.37 K | 9.657 ± 0.11
21.57 K | 9.861 ± 0.11
21.92 K | 10.24 ± 0.11
22.13 K | 10.42 ± 0.12
22.49 K | 10.72 ± 0.12
22.7 K | 10.96 ± 0.12
23.05 K | 11.3 ± 0.12
23.26 K | 11.48 ± 0.12
23.62 K | 11.82 ± 0.13
23.81 K | 12.26 ± 0.13
24.15 K | 12.34 ± 0.13
24.36 K | 12.54 ± 0.14
24.65 K | 12.88 ± 0.14
24.9 K | 13.06 ± 0.14
25.16 K | 13.34 ± 0.14
25.45 K | 13.61 ± 0.15
25.69 K | 13.83 ± 0.15
26.02 K | 14.15 ± 0.15
26.24 K | 14.43 ± 0.15
26.59 K | 14.76 ± 0.16
26.81 K | 14.99 ± 0.16
27.15 K | 15.34 ± 0.16
27.39 K | 15.49 ± 0.16
27.7 K | 15.88 ± 0.17
27.98 K | 16.13 ± 0.17
28.26 K | 16.42 ± 0.17
28.56 K | 16.7 ± 0.18
28.82 K | 16.95 ± 0.18
29.15 K | 17.31 ± 0.18
29.37 K | 17.41 ± 0.18
29.75 K | 17.78 ± 0.19
29.95 K | 18.06 ± 0.19
30 K | 18.07 ± 0.19
30.36 K | 18.41 ± 0.19
30.55 K | 18.62 ± 0.2
31.01 K | 19.02 ± 0.2
31.16 K | 19.16 ± 0.2
31.66 K | 19.69 ± 0.21
31.8 K | 19.88 ± 0.21
32.32 K | 20.31 ± 0.21
32.46 K | 20.43 ± 0.21
32.98 K | 20.91 ± 0.22
33.13 K | 21.09 ± 0.22
33.66 K | 21.61 ± 0.23
33.8 K | 21.78 ± 0.23
34.35 K | 22.21 ± 0.23
34.48 K | 22.3 ± 0.23
35.05 K | 22.92 ± 0.24
35.17 K | 22.97 ± 0.24
35.76 K | 23.59 ± 0.24
35.88 K | 23.74 ± 0.25
36.48 K | 24.27 ± 0.25
36.63 K | 24.38 ± 0.25
37.21 K | 24.86 ± 0.26
37.36 K | 25.09 ± 0.26
37.96 K | 25.64 ± 0.27
38.08 K | 25.78 ± 0.27
38.67 K | 26.21 ± 0.27
38.81 K | 26.52 ± 0.27
39.35 K | 26.89 ± 0.28
39.58 K | 27.16 ± 0.28
40 K | 27.53 ± 0.28
40.05 K | 27.63 ± 0.28
40.43 K | 27.95 ± 0.29
40.77 K | 28.11 ± 0.29
41.28 K | 28.77 ± 0.3
41.49 K | 28.95 ± 0.3
42.02 K | 29.4 ± 0.3
42.23 K | 29.59 ± 0.3
42.78 K | 30.13 ± 0.31
42.98 K | 30.25 ± 0.31
43.57 K | 30.79 ± 0.32
43.74 K | 30.97 ± 0.32
44.37 K | 31.59 ± 0.33
44.52 K | 31.66 ± 0.33
45.16 K | 32.25 ± 0.33
45.3 K | 32.35 ± 0.33
45.96 K | 33.05 ± 0.34
46.09 K | 33.04 ± 0.34
46.74 K | 33.72 ± 0.35
46.88 K | 33.8 ± 0.35
47.53 K | 34.42 ± 0.35
47.68 K | 34.54 ± 0.35
48.33 K | 35.15 ± 0.36
48.49 K | 35.21 ± 0.36
49.13 K | 35.86 ± 0.37
49.31 K | 35.98 ± 0.37
49.94 K | 36.62 ± 0.38
50 K | 36.64 ± 0.38
50.14 K | 36.77 ± 0.38
50.75 K | 37.33 ± 0.38
51.57 K | 38.05 ± 0.39
52.37 K | 38.74 ± 0.4
53.17 K | 39.44 ± 0.4
53.96 K | 40.14 ± 0.41
54.75 K | 40.85 ± 0.42
55.53 K | 41.56 ± 0.42
56.33 K | 42.23 ± 0.43
57.14 K | 42.92 ± 0.44
57.94 K | 43.52 ± 0.45
58.76 K | 44.3 ± 0.45
59.58 K | 45.03 ± 0.46
60 K | 45.42 ± 0.46
60.41 K | 45.79 ± 0.47
61.24 K | 46.57 ± 0.47
62.08 K | 47.21 ± 0.48
62.92 K | 47.95 ± 0.49
63.78 K | 48.66 ± 0.5
64.64 K | 49.47 ± 0.51
65.5 K | 50.22 ± 0.51
66.42 K | 50.91 ± 0.52
67.38 K | 51.71 ± 0.53
68.32 K | 52.51 ± 0.54
69.24 K | 53.27 ± 0.54
70 K | 53.92 ± 0.55
70.15 K | 54.04 ± 0.55
71.1 K | 54.88 ± 0.56
72.09 K | 55.67 ± 0.57
73.08 K | 56.51 ± 0.58
74.09 K | 57.32 ± 0.58
75.11 K | 58.14 ± 0.59
76.17 K | 59.03 ± 0.6
77.3 K | 59.96 ± 0.61
78.43 K | 60.89 ± 0.62
79.19 K | 61.65 ± 0.63
79.55 K | 61.8 ± 0.63
80 K | 62.17 ± 0.63
80.16 K | 62.27 ± 0.63
80.67 K | 62.64 ± 0.64
81.12 K | 63.07 ± 0.64
81.85 K | 63.65 ± 0.65
82.06 K | 63.87 ± 0.65
82.72 K | 64.37 ± 0.66
83.04 K | 64.72 ± 0.66
83.07 K | 64.59 ± 0.66
83.74 K | 65.19 ± 0.66
84.05 K | 65.44 ± 0.67
84.3 K | 65.6 ± 0.67
84.74 K | 66.03 ± 0.67
85.05 K | 66.26 ± 0.67
85.58 K | 66.72 ± 0.68
85.73 K | 66.8 ± 0.68
86.07 K | 67.06 ± 0.68
86.71 K | 67.55 ± 0.69
86.87 K | 67.6 ± 0.69
87.09 K | 67.95 ± 0.69
87.73 K | 68.44 ± 0.7
88.15 K | 68.72 ± 0.7
88.2 K | 68.72 ± 0.7
88.8 K | 69.22 ± 0.7
89.24 K | 69.63 ± 0.71
89.57 K | 69.81 ± 0.71
89.88 K | 70.11 ± 0.71
90 K | 70.2 ± 0.73
90.32 K | 70.45 ± 0.73
90.92 K | 70.89 ± 0.73
90.95 K | 70.98 ± 0.73
91.39 K | 71.33 ± 0.74
92.01 K | 71.78 ± 0.74
92.24 K | 71.95 ± 0.74
92.44 K | 72.09 ± 0.75
93.1 K | 72.72 ± 0.75
93.53 K | 73.06 ± 0.76
93.55 K | 72.93 ± 0.76
94.22 K | 73.58 ± 0.76
94.64 K | 73.83 ± 0.76
94.9 K | 74.01 ± 0.77
95.33 K | 74.47 ± 0.77
95.76 K | 74.71 ± 0.77
96.28 K | 75.12 ± 0.78
96.44 K | 75.31 ± 0.78
96.92 K | 75.66 ± 0.78
97.56 K | 76.24 ± 0.79
97.64 K | 76.12 ± 0.79
98.12 K | 76.55 ± 0.79
98.71 K | 77.11 ± 0.8
98.99 K | 77.22 ± 0.8
99.36 K | 77.58 ± 0.8
99.92 K | 78.04 ± 0.81
100 K | 78.04 ± 0.8
100.32 K | 78.22 ± 0.81
100.64 K | 78.58 ± 0.81
101.13 K | 78.97 ± 0.81
101.68 K | 79.27 ± 0.82
101.91 K | 79.49 ± 0.82
102.33 K | 79.86 ± 0.82
103.08 K | 80.34 ± 0.83
103.16 K | 80.4 ± 0.83
103.51 K | 80.73 ± 0.83
104.4 K | 81.45 ± 0.84
104.47 K | 81.42 ± 0.84
104.73 K | 81.75 ± 0.84
105.67 K | 82.37 ± 0.85
105.83 K | 82.47 ± 0.85
105.97 K | 82.66 ± 0.85
106.98 K | 83.32 ± 0.86
107.19 K | 83.5 ± 0.86
107.21 K | 83.56 ± 0.86
108.27 K | 84.28 ± 0.87
108.43 K | 84.6 ± 0.87
108.57 K | 84.51 ± 0.87
109.54 K | 85.27 ± 0.88
109.64 K | 85.41 ± 0.88
109.99 K | 85.61 ± 0.88
110 K | 85.65 ± 0.88
110.81 K | 86.25 ± 0.89
110.88 K | 86.33 ± 0.89
111.39 K | 86.67 ± 0.89
112.1 K | 87.19 ± 0.9
112.15 K | 87.32 ± 0.9
112.78 K | 87.7 ± 0.9
113.41 K | 88.29 ± 0.91
113.43 K | 88.23 ± 0.91
114.16 K | 88.71 ± 0.91
114.66 K | 89.15 ± 0.92
114.74 K | 89.18 ± 0.92
115.57 K | 89.78 ± 0.92
115.89 K | 90.08 ± 0.92
116.04 K | 90.2 ± 0.93
117.01 K | 90.83 ± 0.93
117.16 K | 91.03 ± 0.93
117.33 K | 91.11 ± 0.93
118.44 K | 91.9 ± 0.94
118.47 K | 92.11 ± 0.94
118.65 K | 92.13 ± 0.94
119.8 K | 92.98 ± 0.95
119.86 K | 92.95 ± 0.95
120 K | 93.09 ± 0.95
120.39 K | 93.31 ± 0.96
121.11 K | 93.95 ± 0.96
121.28 K | 94.01 ± 0.96
121.69 K | 94.22 ± 0.96
122.42 K | 94.92 ± 0.97
122.77 K | 95.15 ± 0.97
